The text below walks through data of US6809064B2, “Synergistic herbicidal compositions comprising herbicides from the benzoylcyclohexanedione group for use in rice crops” (Aventis CropScience GmbH, priority 2001, dated 2004).

One test concerns SAGPY. The test can be described thus: Post-emergence herbicidal action, submerged application. It is filed as in vivo, Sagittaria pygmaea. Here is the method:
(§1) The herbicidal efficacy of the active ingredients or active ingredient mixtures was scored visually by comparing the treated variants with untreated control variants. The damage and development of all aerial plant parts was recorded. Scoring was done on a percentage scale (100% action=all plants dead; 50% action=50% of the plants and green plant parts dead; 0% action=no discernible action=like untreated control plot).
(§2) Seeds or root segments of monocotyledonous and dicotyledonous weeds are placed in sandy loam in pots, covered with soil and grown in the greenhouse under good growth conditions (temperature, atmospheric humidity, water supply). Approximately three weeks after planting, the experimental plants are treated with the compositions according to the invention. In the case of spray application, the compositions according to the invention, which are formulated as wettable powders or emulsion concentrates, are sprayed onto the green plant parts in various dosages with an application rate of 600 to 800 l of water per ha (converted). Immediately to a few days after the application, the test containers are flooded with water up to a depth of 30 mm above the soil surface. In the case of submerged application, in contrast, the soil in the closed test container is already covered with paddy water up to a depth of 30 mm at the time of application. Here, the formulated active ingredients are added directly to the paddy water. After the experimental plants have remained in the greenhouse under optimal growth conditions for a further 3 to 4 weeks, the effect of the preparations is scored visually in comparison with untreated controls. The compositions according to the invention also have an outstanding herbicidal action against a broad spectrum of economically important grass weeds and broad-leaved weeds when applied post-emergence. Frequently, effects of the combinations according to the invention are observed which exceed the formal total of the effects when the herbicides are applied individually. When using suitable low dosages, the values observed in the experiments show an effect of the combinations which exceed the expected values calculated using Colby's formula.
(§3) When applying the combinations according to the invention, herbicidal effects are frequently observed on a harmful plant species which exceed the formal total of the effects of the herbicides present when these are applied by themselves. Alternatively, it is observed in some cases that a lower application rate is required for the herbicide combination in order to achieve the same effect on a harmful plant species in comparison with the individual products.
(§4) A, B=action of component A or B in percent at a dosage of a and b grams of ai/ha, respectively, and
(§5) E=expected value in % at a dosage of a+b grams of ai/ha.
(§6) Examples B.I to B.XVII have been conducted according to method B.2 (post-emergence herbicidal action) as mentioned above, wherein spray application has been applied in case of examples B.I to B.V. Submerged application has been applied in case of examples B.VI bis B.XVII.

For a further test, the system named is SCPJU. Described as above. It is filed as in vivo, Scirpus juncoides. The note with it: for pest or weed control at 15 g/ha: dosage 15 g ai/ha. Here is the method:
as §1, §2, §3, §4, §5, §6

The next test relates to ECHCG. Description: Post-emergence herbicidal action, spray application. It counts as in vivo, Echinochloa crus galli. Here is the method:
as §1, §2, §3
A, B=action of component A or B in percent at a dosage of a and b grams of ai/ha, respectively, and […]

Another test concerns SEBEX. Described as above. It is filed as in vivo, Sesbania exaltata. The procedure: as §1
as §2, with “Frequently, effects of the combinations according to the invention are observed which exceed the formal total of the effects when the herbicides are applied individually.” left out, “formula. […]” for “formula.”

The next test relates to CYPSE. Description: Post-emergence herbicidal action, submerged application. It counts as in vivo, Cyperus serotinus. To be noted: Example B.X, dosage 750 g ai/ha. The procedure: as §1
(§7) Seeds or root segments of monocotyledonous and dicotyledonous weeds are placed in sandy loam in pots, covered with soil and grown in the greenhouse under good growth conditions (temperature, atmospheric humidity, water supply). Approximately three weeks after planting, the experimental plants are treated with the compositions according to the invention. […] After the experimental plants have remained in the greenhouse under optimal growth conditions for a further 3 to 4 weeks, the effect of the preparations is scored visually in comparison with untreated controls. […] When using suitable low dosages, the values observed in the experiments show an effect of the combinations which exceed the expected values calculated using Colby's formula. […]

A further test concerns CHEAL. The test can be described thus: Post-emergence herbicidal action, spray application. To be noted: Example B.I, dosage 10 g ai/ha. It counts as in vivo, Chenopodium album. The procedure:
as §1, §7

A further test has as its system ECHOR. Description: Post-emergence herbicidal action, submerged application. It counts as in vivo. To be noted: Example B.XIV, dosage 18.75 g ai/ha. The procedure:
as §1, §7

The next test concerns CYPES. Description: Post-emergence herbicidal action, spray application. It is filed as in vivo. To be noted: Example B.IV, dosage 20 g ai/ha. The procedure:
as §1, §7

Where [1] appears, read: Example B.II, dosage 100 g ai/ha.
Where [2] appears, read: Example B.VI, submerged application, dosage 75 g ai/ha.
[3] abbreviates: Sagittaria pygmaea, read-out: SAGPY found.
Setting [4] is: Schoenoplectiella juncoides, read-out: SCPJU found.
Setting [5] is: Example B.III, dosage 100 g ai/ha.
Setting [6] is: Example B.V, dosage 500 g ai/ha.

Read-outs that look alike come from different tables or passages of the source.

Take `Cc1ccccc1CO[C@@H]1C[C@@]2(C(C)C)CC[C@]1(C)O2` (racemic) [Compound B7.1, cinmethylin]: in the test on SAGPY (Sagittaria pygmaea, Example B.IX, submerged application, dosage 30 g ai/ha, read-out: SAGPY found), the pest or weed control at 30 g/ha turned out to be 0%. For the same molecule, the pest or weed control at 15 g/ha with SCPJU (Schoenoplectiella juncoides, Example B.IX, submerged application, read-out: SCPJU found) was 0%. Take `O=C(O)COc1ccc(Cl)cc1Cl` [Compound B1.1, 2,4-D]: in the test on ECHCG (setting [1]), the ECHCG found turned out to be 50%. In addition, the SEBEX found in the test on SEBEX (setting [1]) is on record as 45%.

On to `CS(=O)(=O)c1ccc(C(=O)C2=C(Sc3ccccc3)C3CCC(C3)C2=O)c(Cl)c1` (stereo not drawn) [Compound B2.1, benzobicyclon], for which the SAGPY found in the test on SAGPY (setting [2]) stood at 0%. The SCPJU found in the test with SCPJU (setting [2]) is recorded as 30%.

On to `Cc1ccc(C(=O)COc2c(C(=O)c3ccc(Cl)c(C)c3Cl)c(C)nn2C)cc1` [Compound B3.1, benzofenap], for which the pest or weed control at 75 g/ha with SAGPY (Sagittaria pygmaea, Example B.VII, submerged application, dosage 75 g ai/ha, read-out: SAGPY found) was 0%. In the test on SCPJU (Schoenoplectiella juncoides, Example B.VII, submerged application, dosage 300 g ai/ha, read-out: SCPJU found), the pest or weed control at 300 g/ha is 0%. Consider `CC(C)Oc1cc(-n2nc(C(C)(C)C)oc2=O)c(Cl)cc1Cl` [Compound B4.2, oxadiazon], for which, in the test with SAGPY (Sagittaria pygmaea, Example B.XV, submerged application, dosage 175 g ai/ha, read-out: SAGPY found), the pest or weed control at 175 g/ha amounted to 0%. Besides, the pest or weed control at 22 g/ha in the test on SCPJU (Schoenoplectiella juncoides, Example B.XV, submerged application, dosage 22 g ai/ha, read-out: SCPJU found) was 10%. For the molecule `CCN(CC)C(=O)n1cnc(S(=O)(=O)c2c(C)cc(C)cc2C)n1` [Compound B5.1, cafenstrole], the pest or weed control at 150 g/ha in the test with SAGPY (setting [3]) was found to be 0%. Moreover, in the test on SCPJU (setting [4]), the pest or weed control at 75 g/ha was determined as 0%. In the case of `Cc1ccc(NC(=O)NC(C)(C)c2ccccc2)cc1` [Compound B5.2, daimuron], the pest or weed control at 375 g/ha with SAGPY (Sagittaria pygmaea, Example B.X, submerged application, dosage 375 g ai/ha, read-out: SAGPY found) is 0%. In the test with CYPSE, the CYPSE found was found to be 0%.

On to `CSC(=O)c1c(C(F)F)nc(C(F)(F)F)c(C(=O)SC)c1CC(C)C` [Compound B5.3, dithiopyr], for which the pest or weed control at 15 g/ha worked out at 0% with SAGPY (Sagittaria pygmaea, Example B.XI, submerged application, dosage 15 g ai/ha, read-out: SAGPY found) and 0% in the test with SCPJU (Schoenoplectiella juncoides, Example B.XI, submerged application, read-out: SCPJU found). Regarding `CCN(C(=O)n1nnn(-c2ccccc2Cl)c1=O)C1CCCCC1` [Compound B5.4, fentrazamide], the pest or weed control at 37.5 g/ha in the test with SAGPY (Sagittaria pygmaea, Example B.XIII, submerged application, dosage 37.5 g ai/ha, read-out: SAGPY found) came out at 0%. The pest or weed control at 75 g/ha with SCPJU (Schoenoplectiella juncoides, Example B.XIII, submerged application, dosage 75 g ai/ha, read-out: SCPJU found) stood at 0%. On to `CCOC(=O)c1cnn(C)c1S(=O)(=O)NC(=O)Nc1nc(OC)cc(OC)n1` [Compound B6.2, pyrazosulfuron-ethyl], for which the CHEAL found in the test on CHEAL was found to be 10%. Regarding `CO/N=C(/C)c1cccc(Oc2nc(OC)cc(OC)n2)c1C(=O)OC` [Compound B6.3, pyriminobac-methyl], the pest or weed control at 7.5 g/ha with SAGPY (setting [3]) and in the test on SCPJU (setting [4]) was 0% in each case. On to `CCNc1nc(NC(C)C(C)C)nc(SC)n1` (stereo not drawn) [Compound B8.1, dimethametryn], for which the ECHCG found in the test on ECHCG (setting [5]) is recorded as 25%. In addition, the SEBEX found in the test on SEBEX (setting [5]) is on record as 50%.

For the molecule `CCOCOc1ccc(C(=O)Nc2cccc(Cl)c2Cl)cc1` [Compound B9.1, etobenzamide], the SAGPY found in the test with SAGPY (Example B.XII, submerged application, dosage 187 g ai/ha) is 0%. Besides, the SCPJU found in the test on SCPJU (Example B.XII, submerged application, dosage 375 g ai/ha) is 0%. For the molecule `CCC1(CC2(c3cccc(Cl)c3)CO2)C(=O)c2ccccc2C1=O` (stereo not drawn) [Compound B10.1, indanofan], in the test with ECHOR, the ECHOR found came to 50%. For the same molecule, the pest or weed control at 37.5 g/ha in the test on SCPJU (Schoenoplectiella juncoides, Example B.XIV, submerged application, dosage 37.5 g ai/ha, read-out: SCPJU found) turned out to be 20%. Take `COc1cc(OC)nc(Sc2cccc3c2C(=O)OC3C)n1` (stereo not drawn) [Compound B12.1, pyriftalide]: in the test on SAGPY (Sagittaria pygmaea, Example B.XVI, submerged application, dosage 50 g ai/ha, read-out: SAGPY found), the pest or weed control at 50 g/ha was 0%. The pest or weed control at 100 g/ha in the test on SCPJU (Schoenoplectiella juncoides, Example B.XVI, submerged application, dosage 100 g ai/ha, read-out: SCPJU found) was found to be 0%.

`CCCC(=NOCC(C)Oc1ccc(Cl)cc1)C1=C(O)CC(C2CCCSC2)CC1=O` (stereo not drawn) [Compound B13.1, profoxydim]: the ECHCG found with ECHCG (Example B.IV, dosage 20 g ai/ha) is given as 30%. Also, the CYPES found with CYPES came to 0%. As for `NC1=C(Cl)C(=O)c2ccccc2C1=O` [Compound B14.1, quinoclamine], in the test on ECHCG (setting [6]), the ECHCG found was determined as 0%. Further, the SEBEX found in the test with SEBEX (setting [6]) is given as 0%.
